Experimental data: patent US11331327B2, “Antibacterial use of halogenated salicylanilides” (UNION therapeutics A/S, priority 2014, dated 2022)
In brackets after ≈: the same amount, converted by molar mass. Where two headings read alike, the source gives them in different places.

Test system: S. aureus clinical isolates and S. aureus ATCC 29213
Experiment: MIC assay according to CLSI criteria, Example 2, S. aureus strains
Format: cell-based, Staphylococcus aureus
Settings: Staphylococcus aureus, read-out: MIC
Method: Strains were conserved in Luria Bertani (LB) Broth (S. aureus) or Brain Heart Infusion (BHI) (S. pyogenes) supplemented with glycerol 15% (v/v) at −80° C., and reactivated by isolation on LB (S. aureus) or BHI (S. pyogenes) agar plates. Strains were cultivated in Mueller Hinton (MH) Broth-cation adjusted (S. aureus) or BHI (S. pyogenes). All strains were cultivated aerobically (microaerobically for S. pyogenes strains) at 37° C.
Bacterial cultures were stopped in their exponential growth phase and plates were inoculated with the approximate concentration of 5×10^5 cells per well. Plates were incubated at 37° C. for 18 hours (S. aureus) or 24 hours (S. pyogenes).

Compound: CC(=O)O[C@H]1C[C@@]2(C)[C@@H](C[C@@H](O)[C@H]3[C@@]4(C)CC[C@@H](O)[C@@H](C)[C@@H]4CC[C@@]32C)/C1=C(\CCC=C(C)C)C(=O)O [Fusidic acid]
- MIC (ATCC29213, strain 9-1862936): 0.125 µg/mL (≈ 0.242 µM)
- MIC (ATCC29213, strain 9-2625962): 0.25 µg/mL (≈ 0.484 µM)
- MIC (ATCC29213, strain 9-2642158): 0.25 µg/mL (≈ 0.484 µM)
- MIC (ATCC29213, strain 9-2955245): 0.25 µg/mL (≈ 0.484 µM)
- MIC (ATCC29213, strain 9-26422166): 8 µg/mL (≈ 15.5 µM)
- MIC (ATCC29213, strain 000040C): 0.25 µg/mL (≈ 0.484 µM)
- MIC (ATCC29213, strain 000041C): 0.25 µg/mL (≈ 0.484 µM)
- MIC (ATCC29213, strain 000274T): 0.5 µg/mL (≈ 0.968 µM)
- MIC (ATCC29213, strain 114660U): 0.25 µg/mL (≈ 0.484 µM)
- MIC (ATCC29213, strain 115015T): 0.25 µg/mL (≈ 0.484 µM)
- MIC (ATCC29213, strain 115242C): 8 µg/mL (≈ 15.5 µM)
- MIC (ATCC29213, strain 115263C): 0.125 µg/mL (≈ 0.242 µM)
- MIC (ATCC29213, strain 115268C): 0.25 µg/mL (≈ 0.484 µM)
- MIC (ATCC29213, strain 115273C): 0.25 µg/mL (≈ 0.484 µM)
- MIC (ATCC29213, strain 115295C): 0.125 µg/mL (≈ 0.242 µM)
- MIC (ATCC29213, strain 115303C): 0.25 µg/mL (≈ 0.484 µM)
- MIC (ATCC29213, strain 115370U): 0.5 µg/mL (≈ 0.968 µM)
- MIC (ATCC29213, strain 115427C): 0.125 µg/mL (≈ 0.242 µM)
- MIC (ATCC29213, strain 115445C): 0.25 µg/mL (≈ 0.484 µM)
- MIC (ATCC29213, strain 115561C): 0.125 µg/mL (≈ 0.242 µM)
- MIC (ATCC29213, strain 115584D): 0.25 µg/mL (≈ 0.484 µM)
- MIC (ATCC29213, strain 115628T): 8 µg/mL (≈ 15.5 µM)
- MIC (ATCC29213, strain 115690C): 8 µg/mL (≈ 15.5 µM)
- MIC (ATCC29213, strain 115691T): 0.25 µg/mL (≈ 0.484 µM)
- MIC (ATCC29213, strain 115740E): 0.25 µg/mL (≈ 0.484 µM)
- MIC (ATCC29213, strain 115810E): 0.25 µg/mL (≈ 0.484 µM)
- MIC (ATCC29213, strain 115903T): 8 µg/mL (≈ 15.5 µM)
- MIC (ATCC29213, strain 116122T): 0.125 µg/mL (≈ 0.242 µM)
- MIC (ATCC29213, strain ATCC 29213): 0.06 µg/mL (≈ 0.116 µM)
- MIC (ATCC29213, strain E5-1029252): 0.25 µg/mL (≈ 0.484 µM)
- MIC (ATCC29213, strain E5-1029558): 16 µg/mL (≈ 31 µM)
- MIC (ATCC29213, strain E5-1030440): 0.25 µg/mL (≈ 0.484 µM)
- MIC (ATCC29213, strain E5-1030469): 0.125 µg/mL (≈ 0.242 µM)
- MIC (ATCC29213, strain E5-1030472): 0.25 µg/mL (≈ 0.484 µM)
- MIC (ATCC29213, strain E5-1030482): 16 µg/mL (≈ 31 µM)
- MIC (ATCC29213, strain E5-1033076 (first line, r202)): 0.25 µg/mL (≈ 0.484 µM)
- MIC (ATCC29213, strain E5-1033076 (second line, r203)): 0.25 µg/mL (≈ 0.484 µM)
- MIC (ATCC29213, strain E5-1033088): 0.25 µg/mL (≈ 0.484 µM)
- MIC (ATCC29213, strain E5-1033091): 0.03 µg/mL (≈ 0.0581 µM)
- MIC (ATCC29213, strain E5-1035277): 16 µg/mL (≈ 31 µM)
- MIC (ATCC29213, strain E5-1035284): 0.25 µg/mL (≈ 0.484 µM)
- MIC (ATCC29213, strain E5-1035775): > 16 µg/mL
- MIC (ATCC29213, strain E5-1035779): 0.125 µg/mL (≈ 0.242 µM)
- MIC (ATCC29213, strain E5-1037958): 16 µg/mL (≈ 31 µM)
- MIC (ATCC29213, strain E5-1037971): 0.25 µg/mL (≈ 0.484 µM)
- MIC (ATCC29213, strain E5-1038279): 4 µg/mL (≈ 7.74 µM)
- MIC (ATCC29213, strain E5-1038286): 0.25 µg/mL (≈ 0.484 µM)
- MIC (ATCC29213, strain E5-1038294): 0.25 µg/mL (≈ 0.484 µM)
- MIC (ATCC29213, strain E5-1039684): 16 µg/mL (≈ 31 µM)
- MIC (ATCC29213, strain E5-1039697): 0.5 µg/mL (≈ 0.968 µM)
- MIC (ATCC29213, strain E5-1041977): 16 µg/mL (≈ 31 µM)
- MIC (ATCC29213, strain E5-1041979): 0.25 µg/mL (≈ 0.484 µM)
- MIC (ATCC29213, strain E5-1041980): 0.25 µg/mL (≈ 0.484 µM)
- MIC (ATCC29213, strain E5-1041987): 16 µg/mL (≈ 31 µM)
- MIC (ATCC29213, strain E5-1043184): 16 µg/mL (≈ 31 µM)
- MIC (ATCC29213, strain E5-1043668): 1 µg/mL (≈ 1.94 µM)
- MIC (ATCC29213, strain E5-1045179): 0.25 µg/mL (≈ 0.484 µM)
- MIC (ATCC29213, strain E5-1046019): 0.25 µg/mL (≈ 0.484 µM)
- MIC (ATCC29213, strain E5-1046020): 0.25 µg/mL (≈ 0.484 µM)
- MIC (ATCC29213, strain E5-1046039): 0.25 µg/mL (≈ 0.484 µM)
- MIC (ATCC29213, strain E5-1046070): 0.25 µg/mL (≈ 0.484 µM)
- MIC (ATCC29213, strain E5-1046074): 0.125 µg/mL (≈ 0.242 µM)
- MIC (ATCC29213, strain E5-1046085): 8 µg/mL (≈ 15.5 µM)
- MIC (ATCC29213, strain E5-1046096): 0.5 µg/mL (≈ 0.968 µM)
- MIC (ATCC29213, strain E5-1046296): 0.125 µg/mL (≈ 0.242 µM)
- MIC (ATCC29213, strain E5-1046297): 0.125 µg/mL (≈ 0.242 µM)
- MIC (ATCC29213, strain E5-1046298): 0.125 µg/mL (≈ 0.242 µM)
- MIC (ATCC29213, strain E5-1046723): 0.5 µg/mL (≈ 0.968 µM)
- MIC (ATCC29213, strain E5-1047585): 0.25 µg/mL (≈ 0.484 µM)
- MIC (ATCC29213, strain E5-1047606): 8 µg/mL (≈ 15.5 µM)
- MIC (ATCC29213, strain E5-1047924): 0.25 µg/mL (≈ 0.484 µM)
- MIC (ATCC29213, strain E5-1048204): 0.25 µg/mL (≈ 0.484 µM)
- MIC (ATCC29213, strain E5-1048428): 0.5 µg/mL (≈ 0.968 µM)
- MIC (ATCC29213, strain E5-1048654): 0.5 µg/mL (≈ 0.968 µM)
- MIC (ATCC29213, strain E5-1048670): 0.5 µg/mL (≈ 0.968 µM)
- MIC (ATCC29213, strain EEFIC 01): 4 µg/mL (≈ 7.74 µM)
- MIC (ATCC29213, strain EEFIC 02): 4 µg/mL (≈ 7.74 µM)
- MIC (ATCC29213, strain K000772): > 16 µg/mL
- MIC (ATCC29213, strain K000796): 8 µg/mL (≈ 15.5 µM)
- MIC (ATCC29213, strain K000863): 1 µg/mL (≈ 1.94 µM)
- MIC (ATCC29213, strain K000864): 0.25 µg/mL (≈ 0.484 µM)
- MIC (ATCC29213, strain K000866): 8 µg/mL (≈ 15.5 µM)
- MIC (ATCC29213, strain K115498): 0.125 µg/mL (≈ 0.242 µM)
- MIC (ATCC29213, strain K115688): 0.125 µg/mL (≈ 0.242 µM)
- MIC (ATCC29213, strain K115689): 0.125 µg/mL (≈ 0.242 µM)
- MIC (ATCC29213, strain R000019): 0.125 µg/mL (≈ 0.242 µM)
- MIC (ATCC29213, strain R000020): 0.125 µg/mL (≈ 0.242 µM)
- MIC (ATCC29213, strain R000024): 16 µg/mL (≈ 31 µM)
- MIC (ATCC29213, strain U115579): 0.25 µg/mL (≈ 0.484 µM)
- MIC (ATCC 29213 / MRSA, strain MRSA 01): 0.125 µg/mL (≈ 0.242 µM)
- MIC (ATCC 29213 / MRSA, strain MRSA 02): 0.5 µg/mL (≈ 0.968 µM)
- MIC (ATCC 29213 / MRSA, strain MRSA 03): 16 µg/mL (≈ 31 µM)
- MIC (ATCC 29213 / MRSA, strain MRSA 04): 0.25 µg/mL (≈ 0.484 µM)
- MIC (ATCC 29213 / MRSA, strain MRSA 05): 0.125 µg/mL (≈ 0.242 µM)
- MIC (ATCC 29213 / MRSA, strain MRSA 06): 0.125 µg/mL (≈ 0.242 µM)
- MIC (ATCC 29213 / MRSA, strain MRSA 07): 0.25 µg/mL (≈ 0.484 µM)
- MIC (ATCC 29213 / MRSA, strain MRSA 08): 0.125 µg/mL (≈ 0.242 µM)
- MIC (ATCC 29213 / MRSA, strain MRSA 09): 0.25 µg/mL (≈ 0.484 µM)
- MIC (ATCC 29213 / MRSA, strain MRSA 10): 1 µg/mL (≈ 1.94 µM)
- MIC (ATCC 29213 / MRSA, strain MRSA 11): 1 µg/mL (≈ 1.94 µM)
- MIC (ATCC 29213 / MRSA, strain MRSA 12): 4 µg/mL (≈ 7.74 µM)
- MIC (ATCC 29213 / MRSA, strain MRSA 13): 4 µg/mL (≈ 7.74 µM)
- MIC (ATCC 29213 / MRSA, strain MRSA 14): > 16 µg/mL
